The text below walks through data of ChEMBL document CHEMBL1132981 (J Med Chem, 2000).

In assay [1] the target is T1, Adenosine receptor A3 (Homo sapiens, UniProt P0DMS8).
T1 sequence (P0DMS8 whole entry): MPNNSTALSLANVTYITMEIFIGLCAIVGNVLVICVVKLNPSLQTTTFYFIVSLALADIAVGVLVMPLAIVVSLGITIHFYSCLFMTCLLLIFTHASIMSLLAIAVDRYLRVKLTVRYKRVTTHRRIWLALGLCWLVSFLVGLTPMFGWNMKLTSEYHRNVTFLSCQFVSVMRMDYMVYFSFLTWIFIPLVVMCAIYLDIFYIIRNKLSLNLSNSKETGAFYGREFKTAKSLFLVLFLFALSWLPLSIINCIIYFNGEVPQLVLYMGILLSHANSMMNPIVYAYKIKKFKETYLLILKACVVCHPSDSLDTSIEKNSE
Nature of the assay: biochemical.
Description: Antagonist activity against human adenosine A3 receptor expressed in HEK cells in presence of [125]IAB-MECA or [125I]IABA radioligand.

Assay [2] addresses Adenosine receptor A2a (Homo sapiens, UniProt P29274). In words: biochemical.
Description: Antagonist activity against recombinant human adenosine A2A receptor expressed in HEK293 cells in presence of [125I]iodo-ZM-241385 radioligand.
Assay [3] deals with T2, Adenosine receptor A1 (Homo sapiens, UniProt P30542).
T2 sequence (P30542 whole entry): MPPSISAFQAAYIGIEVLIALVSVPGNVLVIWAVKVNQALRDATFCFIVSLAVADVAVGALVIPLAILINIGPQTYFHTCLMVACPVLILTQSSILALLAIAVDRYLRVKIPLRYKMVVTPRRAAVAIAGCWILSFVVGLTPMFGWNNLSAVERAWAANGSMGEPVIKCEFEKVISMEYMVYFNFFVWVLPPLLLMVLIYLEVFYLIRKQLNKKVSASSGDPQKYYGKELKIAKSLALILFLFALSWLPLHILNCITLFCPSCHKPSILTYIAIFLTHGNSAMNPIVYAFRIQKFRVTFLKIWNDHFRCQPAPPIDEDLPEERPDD
Nature of the assay: biochemical.
Description: Antagonist activity against recombinant human adenosine A1 receptor expressed in HEK293 cells in presence of [125I]IABA radioligand.

Assay [4] deals with Adenosine receptors; A1 & A2b (Homo sapiens) (UniProt P30542+P29275). In words: Selectivity ratio of hA1 to hA2B. The assay is classed as protein assay.
The target of assay [5] is Adenosine receptors; A2b & A3 (Homo sapiens) (UniProt P29275+P0DMS8). In words: Selectivity ratio of hA3 to hA2B. The class given is protein assay.
Assay [6] addresses T3, Adenosine receptor A2b (Homo sapiens, UniProt P29275).
T3 sequence (P29275 whole entry): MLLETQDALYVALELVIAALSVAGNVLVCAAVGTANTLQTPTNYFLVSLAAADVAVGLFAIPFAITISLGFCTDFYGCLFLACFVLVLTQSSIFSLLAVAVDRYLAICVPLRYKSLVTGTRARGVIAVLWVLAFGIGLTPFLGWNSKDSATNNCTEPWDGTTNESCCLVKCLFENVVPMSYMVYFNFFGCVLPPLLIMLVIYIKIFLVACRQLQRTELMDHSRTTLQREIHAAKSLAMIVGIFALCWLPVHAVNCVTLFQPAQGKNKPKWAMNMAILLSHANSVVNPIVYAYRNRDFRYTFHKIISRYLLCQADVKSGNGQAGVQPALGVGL
Description: Antagonist activity against human A2B adenosine receptor expressed in HEK293 cells uisng [3H]ZM-241385 or [125I]-IABOPX

Assay [7] addresses Adenosine receptor A2a (Rattus norvegicus, UniProt P30543). In words: biochemical.
Description: Antagonist activity against adenosine A2A receptor in rat striatal membrane in presence of [3H]CGS-21680 radioligand.
The target in assay [8] is T4, Adenosine receptor A1 (Rattus norvegicus, UniProt P25099).
T4 sequence (P25099 whole entry): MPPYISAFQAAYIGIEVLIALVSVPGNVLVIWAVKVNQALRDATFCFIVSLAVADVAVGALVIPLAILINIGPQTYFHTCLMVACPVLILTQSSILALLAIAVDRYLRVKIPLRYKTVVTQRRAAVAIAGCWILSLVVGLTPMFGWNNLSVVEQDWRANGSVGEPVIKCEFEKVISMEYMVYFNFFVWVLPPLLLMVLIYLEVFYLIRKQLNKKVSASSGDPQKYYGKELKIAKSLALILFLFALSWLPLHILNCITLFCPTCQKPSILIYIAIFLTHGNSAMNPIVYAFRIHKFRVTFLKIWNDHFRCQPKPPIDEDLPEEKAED
In words: biochemical.
Description: Antagonist activity against adenosine A1 receptor in rat brain membrane in presence of [3H]R-PIA radioligand.

Assay [9] concerns the target T5, Adenosine receptor A3 (Homo sapiens) (UniProt P0DMS8).
T5 sequence (whole entry): T1 sequence (P0DMS8 whole entry)
The class given is functional, cell-based. The conditions noted are these: HEK293, 10e-6 M.

The target in assay [10] is T6, Adenosine receptor A3 (Rattus norvegicus, UniProt P28647).
T6 sequence (P28647 whole entry): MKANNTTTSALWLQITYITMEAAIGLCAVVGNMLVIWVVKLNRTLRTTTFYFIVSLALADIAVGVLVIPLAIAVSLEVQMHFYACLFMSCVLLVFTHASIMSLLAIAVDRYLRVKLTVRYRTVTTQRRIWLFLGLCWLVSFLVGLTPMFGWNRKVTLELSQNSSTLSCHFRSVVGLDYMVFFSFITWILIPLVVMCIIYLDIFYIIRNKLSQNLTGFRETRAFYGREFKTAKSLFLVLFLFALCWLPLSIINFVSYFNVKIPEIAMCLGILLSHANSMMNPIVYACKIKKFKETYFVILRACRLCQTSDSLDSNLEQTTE
The class given is functional.

Assay [11] deals with T7, Adenosine receptor A2b (Homo sapiens) (UniProt P29275).
T7 sequence (whole entry): T3 sequence (P29275 whole entry)
The assay is classed as functional, cell-based. The conditions noted are these: HEK293, 10e-5 M.

The target of assay [12] is Adenosine receptor A2a (Rattus norvegicus) (UniProt P30543). Nature of the assay: Antagonist activity against adenosine A2A receptor in rat striatal membrane using [3H]CGS-21680 at 10e-5 M. The class given is functional, cell membranes. The conditions noted are these: Striatum.
Chain of Adenosine receptor A2a (Rattus norvegicus) (P30543 whole entry): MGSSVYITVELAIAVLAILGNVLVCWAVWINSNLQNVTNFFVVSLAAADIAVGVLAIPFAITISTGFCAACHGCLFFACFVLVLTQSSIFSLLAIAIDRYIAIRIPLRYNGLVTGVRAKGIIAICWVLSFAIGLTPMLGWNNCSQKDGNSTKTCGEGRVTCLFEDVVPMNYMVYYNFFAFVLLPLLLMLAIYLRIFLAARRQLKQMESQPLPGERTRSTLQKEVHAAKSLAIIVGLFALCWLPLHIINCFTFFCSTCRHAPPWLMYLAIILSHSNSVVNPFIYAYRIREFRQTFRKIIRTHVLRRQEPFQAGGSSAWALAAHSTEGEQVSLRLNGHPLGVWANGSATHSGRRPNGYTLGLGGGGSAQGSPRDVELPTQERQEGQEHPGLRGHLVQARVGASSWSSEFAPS
Assay [13] concerns the target T8, Adenosine receptor A1 (Rattus norvegicus) (UniProt P25099).
T8 sequence (whole entry): T4 sequence (P25099 whole entry)
In words: Antagonist activity against A1 adenosine receptor in rat brain membrane using [3H]-R-PIA at 10e-5 M. The class given is functional, cell membranes.

Assay [14] concerns the target Adenosine receptor A2a (Rattus norvegicus) (UniProt P30543). Nature of the assay: Antagonist activity against adenosine A2A receptor in rat striatal membrane using [3H]CGS-21680. The assay is classed as functional, cell membranes. The conditions noted are these: Striatum, concentration not given here.
Assay [15] concerns the target T8, Adenosine receptor A1 (Rattus norvegicus). Nature of the assay: Antagonist activity against adenosine A1 receptor in rat brain membrane using [3H]R-PIA at 10e-5 M. The assay is classed as functional, cell membranes.

Chain of Adenosine receptor A2a (Rattus norvegicus, UniProt P30543) (P30543 whole entry): as above
Chain of Adenosine receptor A2a (Homo sapiens, UniProt P29274) (P29274 whole entry): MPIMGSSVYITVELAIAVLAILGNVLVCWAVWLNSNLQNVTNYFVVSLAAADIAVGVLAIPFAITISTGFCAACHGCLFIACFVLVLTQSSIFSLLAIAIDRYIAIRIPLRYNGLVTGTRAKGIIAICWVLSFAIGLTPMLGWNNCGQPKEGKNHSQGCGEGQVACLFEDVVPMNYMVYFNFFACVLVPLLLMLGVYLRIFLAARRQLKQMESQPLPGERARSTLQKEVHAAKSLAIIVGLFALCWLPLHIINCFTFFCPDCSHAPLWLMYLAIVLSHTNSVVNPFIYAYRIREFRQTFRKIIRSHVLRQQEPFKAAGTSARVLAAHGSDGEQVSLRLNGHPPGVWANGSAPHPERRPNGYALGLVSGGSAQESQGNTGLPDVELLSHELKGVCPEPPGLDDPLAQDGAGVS

Consider `CCCn1c(=O)c2[nH]c(-c3ccc(OCC(=O)Nc4ccc(C(=O)O)cc4)cc3)nc2n(CCC)c1=O`, for which the values for the inhibitory constant (Ki) in assay [1], in assay [2] and in [3] were > 5000 nM, 39 nM and 161 nM, respectively.
Take `CCCn1c(=O)c2nc(-c3ccc(OCC(=O)N(Cc4ccccc4)Cc4ccccc4)cc3)[nH]c2n(CCC)c1=O`: the Ratio turned out to be 70 in assay [4] and 29 in assay [5].
With `CCn1c(=O)c2[nH]c(-c3ccc(OCC(=O)Nc4ccc(CC(=O)NCCN)cc4)cc3)nc2n(CC)c1=O`, the Ki worked out at 15.2 nM in assay [6], 1370 nM in assay [7] and 65 nM in assay [8].
Turning to `CCCn1c(=O)c2nc(-c3ccc(OCC(=O)NN4C(=O)C(C)=C(C)C4=O)cc3)[nH]c2n(CCC)c1=O`, the Ratio in assay [4] came to 110; in assay [5], 25.
For `CCn1c(=O)c2nc(-c3ccc(OCC(=O)Nc4ccc(C)cc4)cc3)[nH]c2n(CC)c1=O`, the Displacement in [9] is < 10%.
`CCCCn1c(=O)c2[nH]c(-c3ccc(OCC(=O)O)cc3)nc2n(CCCC)c1=O` displayed a Ki in assay [10] of 27500 nM. This counts as double-digit micromolar.
Regarding `CCCn1c(=O)c2nc(-c3ccc(OCC(=O)Nc4ccccc4)cc3)[nH]c2n(CCC)c1=O`, the Ratio in assay [4] worked out at 27; in assay [5], 93.
The like results for `CCCn1c(=O)c2nc(-c3ccc(OCC(=O)Nc4ccccc4C(C)=O)cc3)[nH]c2n(CCC)c1=O` were, in that order, 120 and 23.
As for `CCCn1c(=O)c2nc(-c3ccc(OCC(=O)Nc4ccc(C(C)=O)cc4)cc3)[nH]c2n(CCC)c1=O`, the Ratio in assay [4] was 110; in assay [5], 170.
Take `CC(=O)c1ccccc1NC(=O)/C=C/c1ccc(-c2nc3c(=O)n(CC4CCCCC4)c(=O)n(CC4CCCCC4)c3[nH]2)cc1`: the Displacement in assay [11], in assay [12] and in assay [13] was < 10% in each case.
With `CCCn1c(=O)c2nc(-c3ccc(OCC(=O)Nc4ccc(C(=O)OC)cc4)cc3)[nH]c2n(CCC)c1=O`, the Ratio was 57 in [4] and 92 in assay [5].
For the molecule `CCCn1c(=O)c2nc(-c3ccc(OCC(=O)Nc4cccc(C(C)=O)c4)cc3)[nH]c2n(CCC)c1=O`, the results for the Ratio in [4] and in [5] were 48 and 72, respectively.
The corresponding values for `CCCn1c(=O)c2nc(-c3ccc(OCC(=O)Nc4ccc(Br)cc4)cc3)[nH]c2n(CCC)c1=O` are 31 and 980.
Regarding `O=C(O)/C=C/c1ccc(-c2nc3c(=O)n(CC4CCCCC4)c(=O)n(CC4CCCCC4)c3[nH]2)cc1`, the Ki in [7] is < 10 nM. Further, the Ratio in [4] is 25; in assay [5], 4.6.
In the case of `CCCn1c(=O)c2nc(-c3ccc(OCC(=O)Nc4ccc(Cl)cc4)cc3)[nH]c2n(CCC)c1=O`, the Ratio turned out to be 20 in assay [4] and 760 in assay [5].
The like results for `CCCn1c(=O)c2nc(-c3ccc(OCC(=O)Nc4ccc([N+](=O)[O-])cc4)cc3)[nH]c2n(CCC)c1=O` were, in that order, 38 and 91.
As for `CCCn1c(=O)c2[nH]c(-c3ccc(OCC(=O)Nc4ccc(C(N)=O)cc4)cc3)nc2n(CCC)c1=O`, the values for the Ki in assay [2] and in assay [3] were 39 nM and 161 nM, respectively.
As for `CC(=O)c1ccccc1NC(=O)/C=C/c1ccc(-c2nc3c(=O)n(Cc4ccccc4)c(=O)n(Cc4ccccc4)c3[nH]2)cc1`, the Displacement in [11] and in assay [12] was < 10% in each case.
Turning to `CCCn1c(=O)c2nc(-c3ccc(OCC(=O)Nc4ccc(C(=O)O)cc4)cc3)[nH]c2n(CCC)c1=O`, the results for the Ratio in assay [4] and in assay [5] were 10 and > 300, respectively.
On to `CCCn1c(=O)c2nc(-c3ccc(/C=C/C(=O)O)cc3)[nH]c2n(CCC)c1=O`, for which the Ki in assay [6] turned out to be 60 nM; in [1] it was 30 nM.
As for `C=CCn1c(=O)c2nc(-c3ccc(OCC(=O)O)cc3)[nH]c2n(CC=C)c1=O`, the Ratio came out at 12 in [4] and 5.8 in [5].
The like results for `CCCCn1c(=O)c2nc(-c3ccc(OCC(=O)O)cc3)[nH]c2n(CCCC)c1=O` were, in that order, 3.1 and 1.9.
Regarding `O=C(O)COc1ccc(-c2nc3c(=O)n(Cc4ccccc4)c(=O)n(Cc4ccccc4)c3[nH]2)cc1`, the inhibition in [14] was determined as 25%.
Still for that read-out and setting: the result for `CCCn1c(=O)c2nc(-c3ccc(OCC(=O)NC(c4ccccc4)c4ccccc4)cc3)[nH]c2n(CCC)c1=O` reads 20%.
For `CCCn1c(=O)c2nc(-c3ccc(OCC(=O)Nc4ccc(F)cc4)cc3)[nH]c2n(CCC)c1=O`, the Ratio in [4] was 8.1; in [5], 176.
For the molecule `CCCn1c(=O)c2nc(-c3ccc(OCC(=O)Nc4ccc(I)cc4)cc3)[nH]c2n(CCC)c1=O`, the Ratio was 140 in assay [4] and 600 in [5].
As to `CC(=O)c1ccccc1NC(=O)COc1ccc(-c2nc3c(=O)n(Cc4ccccc4)c(=O)n(Cc4ccccc4)c3[nH]2)cc1`, the Displacement in assay [11], in [15] and in [12] was < 10% each time.
In assay [8], `CCCn1c(=O)c2[nH]c(-c3ccc(OCC(=O)Nc4ccc(F)cc4)cc3)nc2n(CCC)c1=O` registered an inhibition constant Ki of 272 nM.
`CCCn1c(=O)c2nc(-c3ccc(OCC(=O)Nc4ccc(C(F)(F)F)cc4)cc3)[nH]c2n(CCC)c1=O`: the Ratio was 29 in [4] and 100 in assay [5].

What is called Ki is a measure of affinity in units of concentration, obtained from inhibition or displacement. A high value points to lower affinity. The inhibition is the relative decrease from the control value, in per cent. A lower inhibition goes with a weak effect.
